Data: PubChem BioAssay (NCI)
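Test compounds were applied to cells in 96-well plates for 48 hours at 5 doses. At the GI50, growth is halved. TGI: concentration producing complete growth inhibition.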

How the values were obtained:
Assay in all cases: DTP human tumour cell line panel, 48 h
[1] = system: 786-0 renal
[2] = system: A498 renal
[3] = system: A549 NSCLC
[4] = system: ACHN renal
[5] = system: BT-549 breast
[6] = system: CAKI-1 renal
[7] = system: CCRF-CEM leukemia
[8] = system: COLO 205 colon
[9] = system: DU-145 prostate
[10] = system: EKVX NSCLC
[11] = system: HCC-2998 colon
[12] = system: HCT-116 colon
[13] = system: HCT-15 colon
[14] = system: HL-60(TB) leukemia
[15] = system: HOP-62 NSCLC
[16] = system: HOP-92 NSCLC
[17] = system: HS 578T breast
[18] = system: HT29 colon
[19] = system: IGROV1 ovarian
[20] = system: K-562 leukemia
[21] = system: KM12 colon
[22] = system: LOX IMVI melanoma
[23] = system: M14 melanoma
[24] = system: MALME-3M melanoma
[25] = system: MCF7 breast
[26] = system: MDA-MB-231 breast
[27] = system: MDA-MB-435
[28] = system: MOLT-4 leukemia
[29] = system: NCI-H226 lung
[30] = system: NCI-H23 lung
[31] = system: NCI-H460 lung
[32] = system: NCI-H522 lung
[33] = system: NCI/ADR-RES ovarian
[34] = system: OVCAR-3 ovarian
[35] = system: OVCAR-4 ovarian
[36] = system: OVCAR-5 ovarian
[37] = system: OVCAR-8 ovarian
[38] = system: PC-3 prostate
[39] = system: RPMI-8226 leukemia
[40] = system: RXF 393 renal
[41] = system: SF-268 CNS
[42] = system: SF-295 CNS
[43] = system: SF-539 CNS
[44] = system: SK-MEL-2 melanoma
[45] = system: SK-MEL-28 melanoma
[46] = system: SK-MEL-5 melanoma
[47] = system: SK-OV-3 ovarian
[48] = system: SN12C renal
[49] = system: SNB-19 CNS
[50] = system: SNB-75 CNS
[51] = system: SW-620 colon
[52] = system: T-47D breast
[53] = system: TK-10 renal
[54] = system: U251 CNS
[55] = system: UACC-257 melanoma
[56] = system: UACC-62 melanoma
[57] = system: UO-31 renal
[58] = system: SR leukemia

Structure (SMILES): COc1ccc(-n2c(SCC(=O)Nc3ccc(-c4nc5ccccc5[nH]4)cc3)nc3ccccc3c2=O)cc1
- GI50 [1]: 17.7 µM
- TGI [1]: 34.2 µM
- GI50 [2]: > 100 µM
- TGI [2]: > 100 µM
- GI50 [3]: 3.58 µM
- TGI [3]: 14.2 µM
- GI50 [4]: 17.1 µM
- TGI [4]: 33.7 µM
- GI50 [5]: 8.06 µM
- TGI [5]: 24.5 µM
- GI50 [6]: 29.7 µM
- TGI [6]: > 100 µM
- GI50 [7]: 6.15 µM
- TGI [7]: > 100 µM
- GI50 [8]: 28.3 µM
- TGI [8]: 76.6 µM
- GI50 [9]: 10.9 µM
- TGI [9]: 33 µM
- GI50 [10]: 47.2 µM
- TGI [10]: > 100 µM
- GI50 [11]: 14.3 µM
- TGI [11]: 46 µM
- GI50 [12]: 4.88 µM
- TGI [12]: 26.2 µM
- GI50 [13]: 2.95 µM
- TGI [13]: 12 µM
- GI50 [14]: 9.91 µM
- TGI [14]: > 100 µM
- GI50 [15]: 23.3 µM
- TGI [15]: 59.6 µM
- GI50 [16]: 12.7 µM
- TGI [16]: 31.3 µM
- GI50 [17]: 21.6 µM
- TGI [17]: 71.5 µM
- GI50 [18]: 15 µM
- TGI [18]: 36.5 µM
- GI50 [19]: 15.2 µM
- TGI [19]: 42.9 µM
- GI50 [20]: 4.82 µM
- TGI [20]: > 100 µM
- GI50 [21]: 51.4 µM
- TGI [21]: > 100 µM
- GI50 [22]: 2.1 µM
- TGI [22]: 3.91 µM
- GI50 [23]: 13.1 µM
- TGI [23]: 55.5 µM
- GI50 [24]: 2.58 µM
- TGI [24]: 16.2 µM
- GI50 [25]: 2.05 µM
- TGI [25]: 5.11 µM
- GI50 [26]: 16.2 µM
- TGI [26]: 49.6 µM
- GI50 [27]: 9.17 µM
- TGI [27]: 27.6 µM
- GI50 [28]: 5.85 µM
- TGI [28]: > 100 µM
- GI50 [29]: > 100 µM
- TGI [29]: > 100 µM
- GI50 [30]: 10.2 µM
- TGI [30]: 35.1 µM
- GI50 [31]: 3.39 µM
- TGI [31]: 12.1 µM
- GI50 [32]: 14.5 µM
- TGI [32]: 32.3 µM
- GI50 [33]: 16.7 µM
- TGI [33]: > 100 µM
- GI50 [34]: 18 µM
- TGI [34]: 39.7 µM
- GI50 [35]: 7.74 µM
- TGI [35]: 20.8 µM
- GI50 [36]: 23.7 µM
- TGI [36]: > 100 µM
- GI50 [37]: 18.1 µM
- TGI [37]: 39.6 µM
- GI50 [38]: 18 µM
- TGI [38]: 62.9 µM
- GI50 [39]: 3.72 µM
- TGI [39]: 70.5 µM
- GI50 [40]: 12.7 µM
- TGI [40]: 27.3 µM
- GI50 [41]: 42.9 µM
- TGI [41]: > 100 µM
- GI50 [42]: 13.3 µM
- TGI [42]: 27.9 µM
- GI50 [43]: 14.1 µM
- TGI [43]: 27.8 µM
- GI50 [44]: 50.7 µM
- TGI [44]: > 100 µM
- GI50 [45]: 3.52 µM
- TGI [45]: 13.4 µM
- GI50 [46]: 14 µM
- TGI [46]: 30.4 µM
- GI50 [47]: > 100 µM
- TGI [47]: > 100 µM
- GI50 [48]: 11.3 µM
- TGI [48]: 25.6 µM
- GI50 [49]: 17.9 µM
- TGI [49]: 60.2 µM
- GI50 [50]: 19.9 µM
- TGI [50]: 91.9 µM
- GI50 [51]: 6.63 µM
- TGI [51]: 42.5 µM
- GI50 [52]: 17.3 µM
- TGI [52]: 36.7 µM
- GI50 [53]: 21.6 µM
- TGI [53]: 42 µM
- GI50 [54]: 15.1 µM
- TGI [54]: 31.5 µM
- GI50 [55]: 19 µM
- TGI [55]: 39.2 µM
- GI50 [56]: 15.8 µM
- TGI [56]: 30.5 µM
- GI50 [57]: 11.8 µM
- TGI [57]: 29.1 µM

Structure (SMILES): O=C1[C@H]2Cc3c([nH]c4ccccc34)[C@@H](c3ccc(Br)cc3)N2C(=O)CN1C1CCN(CC2CCCCC2)CC1
- GI50 [1]: 15.6 µM
- TGI [1]: 29.4 µM
- GI50 [2]: 13.7 µM
- TGI [2]: 26.9 µM
- GI50 [3]: 18.3 µM
- TGI [3]: 39.9 µM
- GI50 [4]: 15.3 µM
- TGI [4]: 28.7 µM
- GI50 [5]: 15.5 µM
- TGI [5]: 29.6 µM
- GI50 [6]: 14.6 µM
- TGI [6]: 28.2 µM
- GI50 [7]: 24.1 µM
- TGI [7]: 56.5 µM
- GI50 [8]: 14.3 µM
- TGI [8]: 30.2 µM
- GI50 [9]: 17.6 µM
- TGI [9]: 33.6 µM
- GI50 [10]: 13.8 µM
- TGI [10]: 27.4 µM
- GI50 [11]: 14.4 µM
- TGI [11]: 28 µM
- GI50 [12]: 13.6 µM
- TGI [12]: 27.2 µM
- GI50 [13]: 16 µM
- TGI [13]: 30.8 µM
- GI50 [14]: 16.4 µM
- TGI [14]: 41.8 µM
- GI50 [15]: 16.2 µM
- TGI [15]: 34.6 µM
- GI50 [16]: 6.7 µM
- TGI [16]: 21.1 µM
- GI50 [17]: 18.4 µM
- TGI [17]: 45.1 µM
- GI50 [18]: 14.8 µM
- TGI [18]: 35 µM
- GI50 [19]: 13.4 µM
- TGI [19]: 26.7 µM
- GI50 [20]: 16.5 µM
- TGI [20]: 53.1 µM
- GI50 [21]: 17 µM
- TGI [21]: 34 µM
- GI50 [22]: 18.6 µM
- TGI [22]: 34.3 µM
- GI50 [23]: 16.9 µM
- TGI [23]: 32.9 µM
- GI50 [24]: 13.8 µM
- TGI [24]: 28.3 µM
- GI50 [25]: 10.1 µM
- TGI [25]: 22.3 µM
- GI50 [26]: 15.2 µM
- TGI [26]: 30.1 µM
- GI50 [27]: 16.9 µM
- TGI [27]: 31.6 µM
- GI50 [28]: 20.4 µM
- TGI [28]: 81.6 µM
- GI50 [29]: 30.4 µM
- TGI [29]: > 100 µM
- GI50 [31]: 18.8 µM
- TGI [31]: 36.1 µM
- GI50 [32]: 17.9 µM
- TGI [32]: 39.9 µM
- GI50 [33]: 16.7 µM
- TGI [33]: 34.1 µM
- GI50 [34]: 15.3 µM
- TGI [34]: 29.5 µM
- GI50 [35]: 17.9 µM
- TGI [35]: 37.1 µM
- GI50 [36]: 15.1 µM
- TGI [36]: 28.8 µM
- GI50 [37]: 22.5 µM
- TGI [37]: 55.5 µM
- GI50 [38]: 12.4 µM
- TGI [38]: 25.5 µM
- GI50 [39]: 23.4 µM
- TGI [39]: 53.4 µM
- GI50 [40]: 11.9 µM
- TGI [40]: 24.2 µM
- GI50 [41]: 15.3 µM
- TGI [41]: 31.9 µM
- GI50 [42]: 17.5 µM
- TGI [42]: 31.9 µM
- GI50 [43]: 15.5 µM
- TGI [43]: 29.5 µM
- GI50 [44]: 23 µM
- TGI [44]: 58.7 µM
- GI50 [45]: 16.4 µM
- TGI [45]: 30.6 µM
- GI50 [46]: 16.1 µM
- TGI [46]: 29.9 µM
- GI50 [47]: 21.9 µM
- TGI [47]: 59.3 µM
- GI50 [48]: 15.8 µM
- TGI [48]: 30.9 µM
- GI50 [49]: 15.9 µM
- TGI [49]: 31.5 µM
- GI50 [50]: 87.1 µM
- TGI [50]: > 100 µM
- GI50 [58]: 16 µM
- TGI [58]: 46.1 µM
- GI50 [51]: 16.5 µM
- TGI [51]: 31.8 µM
- GI50 [52]: 13.9 µM
- TGI [52]: > 100 µM
- GI50 [53]: 17.8 µM
- TGI [53]: 35.1 µM
- GI50 [54]: 16.4 µM
- TGI [54]: 34 µM
- GI50 [55]: 20.2 µM
- TGI [55]: 42.7 µM
- GI50 [56]: 16 µM
- TGI [56]: 29.9 µM
- GI50 [57]: 11.7 µM
- TGI [57]: 24.2 µM
